# From patent US20230414771A1, “PREPARATION AND USE OF IMMUNOSTIMULATORY CONJUGATED COMPLEXES FOR TARGETED DELIVERY AND ACTIVATION” (YAFEI SHANGHAI BIOLOGY MEDICINE SCIENCE & TECHNOLOGY CO., …, priority 2020, published 2023)
# Read-outs that look alike come from different tables or passages of the source. Where a SMILES comes first, the peptide text is derived from it. The star is where a group is joined. Doxorubicin(3'-N) = COc1cccc2c1C(=O)c1c(O)c3c(c(O)c1C2=O)C[C@@](O)(C(=O)CO)C[C@@H]3O[C@H]1C[C@H](N*)[C@H](O)[C@H](C)O1; Hexanoyl(6-maleimido) = O=C1C=CC(=O)N1CCCCCC(=O)*
# Tests used:
# [1] = Solution stability, HPLC and electrophoresis; conditions: 0.5 mg/ml, pH 5.5, 25° C.
# Method: (§1) Add 0.5 ml of sterile water for injection to prepare a 10 mg/ml mother solution. […] Take 30 ul of the mother solution, add 570 ul of buffer solutions with different pH values of 5.5, and prepare a 0.5 mg/ml sample solution. After the sample was clarified, it was placed in a 25° C./37° C. water bath, and after 8 hours, the sample was sampled by HPLC and electrophoresis to detect the content of the sample relative to 0 hours, and the solution stability data of different compounds could be obtained.
# HT1080 tumors = test: HT1080 tumor model in nude mice, 36 umol/kg; assay type: in vivo; conditions: for inhibition in vivo at 36 µmol/kg: Mus musculus, read-out: Tumor inhibition rate Day 28
# Method: • 1. Animals: nude mice aged 6-8 weeks, all female. • 2. Preparation of tumor models • 1) HT1080 cells were purchased from ATCC and characterized according to the instructions provided. […] Randomization was performed when the tumor size reached 100 mm^3. Treatment was then initiated, and the day of initiation of treatment was counted as Day 1. • 3) Treatment process
# According to the clinical application of the corresponding compound, the drug was administered intravenously (IV). The compounds indicated in the table were administered at a low dose and at the same dose of 36 umol/kg.
# [2] = tested on: Human hepatoma HepG2 cells; test: Human liver cancer HepG2 tumors in nude mice; assay type: in vivo; conditions: for inhibition in vivo at 54 µmol/kg: Mus musculus, read-out: Tumor inhibition rate (%) Day 28
# How it was run: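 Female nude mice aged 6-8 weeks bearing HepG2 xenografts, randomized at 100 mm^3 tumor size. Dosing IV from Day 1 at 54 umol/kg; DOX at 18 umol/kg.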
# BALB/C mice = test: Acute toxicity (MTD) of intravenous administration in mice; assay type: in vivo; conditions: 38.4 μmol/kg intravenous, 10 mice, observed 17 days
# Method: They were randomly divided into 7 groups according to body weight, 10 mice in each group. […] The control test of saline group and paclitaxel group injection (commercially available, Beijing Youcare pharmaceutical) was carried out, the volume of administration was 0.2 ml for each mouse.
# M2 macrophages = test: MTT cytotoxicity on M2 macrophages; assay type: cell-based, C57BL/6 mice; conditions: 48 hours, relative to C3
# Method: The bilateral femur and tibiae of two C57BL/6 mice were taken out under aseptic conditions, and that metaphysis was cut off in a super-clean table. the marrow cavity was gently washed with serum-free MEM culture solution by a 5 mL sterile syringe for 4 times, and all cell suspensions were collect; Centrifuge at 1000 r/min for 10 min, discard the supernatant to obtain the cell precipitate, resuspend with an appropriate volume of serum-free MEM culture medium, repeatedly blow and homogenize, filter with a 40 uM filter screen, add 3 times the volume of erythrocyte lysate, and lyse on ice for 10 min; Centrifuge at 1000 r/min for 5 min, discard the supernatant to obtain the cell precipitate, wash with serum-free MEM culture medium for 2 times, and collect the cell precipitate; Resuspend the cells with MEM complete culture medium containing 10% FBS and 1% PS in volume fraction, and count the cells for subsequent differentiation; 100 uL, 20000 cells/well were inoculated into 96-well cell culture plate, 100 ng M-CSF was added into the culture medium for differentiation of M2 macrophages, and the cells were statically cultured at 37° C. in 5% C02 incubator, and induced to differentiate for 7 days, and the cell morphology was observed. […]
# The cell survival rate and the 50% inhibitory concentration of the drug on the cells were calculated. […]
# [3] = 0.5 mg/ml, pH 5.5
# Method: as §1
# [4] = tested on: CT26 tumors orthotopically transplanted in liver; test: Orthotopic liver CT26 tumors, EMC-AANL-DOX, lenvatinib and PD-1; assay type: in vivo, BALB/c mice; conditions: 18 μmol/kg IV once weekly for 3 weeks
# Method: 5×10^5 CT26 cells were injected subcutaneously into the back of nude mice. Randomization was performed when the tumor size reached 800-1000 mm^3. Tumor tissue was then extracted and cut into 100 mm^3 tumor tissue pieces and transplanted orthotopically into BALB/c mouse livers. After one week, when the orthotopically transplanted tumors grew, the mice with orthotopically transplanted tumors were randomized. • 2) Treatment course: 6 mice in one group were treated with drugs. The day of treatment was Day 1. According to the clinical application of EMC-AANL-DOX, the drug was administered intravenously (IV) once weekly for 3 weeks.
# [5] = Water solubility test (observation and HPLC); assay type: physicochemical; conditions: thermodynamic from solid
# Method: The compounds prepared in accordance with the examples of the disclosure and the reference compounds C1, C2, C3 and C4 were lyophilized (−70° C.).
# [6] = tested on: Human prostate cancer PC-3 tumor tissue homogenate; test: Activation in PC-3 tumor tissue homogenate; assay type: biochemical; conditions: PC-3 homogenate pH 6.0, 37° C., 1 mg/ml
# Method: In the experiments of the present disclosure, 1 mg/ml of the sample compound was added to 100 μg of acidified tumor tissue homogenate (pH 6.0) at 37° C. The enzyme in the tumor tissue homogenate can cause the release of doxorubicin, and the reduction of compound and the increase of doxorubicin could be detected by HPLC to compare the activation efficiency of the drug in the tumor tissue.
compound,measurement,setting,value
COc1cccc2c1C(=O)c1c(O)c3c(c(O)c1C2=O)C[C@@](O)(C(=O)CO)C[C@@H]3O[C@H]1C[C@H](NC(=O)[C@H](CC(C)C)NC(=O)[C@H](CC(N)=O)NC(=O)[C@H](C)NC(=O)[C@H](C)NC(=O)CCOCCOCCNC(=O)CCN2C(=O)C=CC2=O)[C@H](O)[C@H](C)O1 [QHL-087-DOX],"Stability data of the solution, 8 hr (content relative to 0 hours)",[1],98.2%
same,inhibition in vivo at 36 µmol/kg,"HT1080 tumors; HT-1080, iv, 672 h",100%
same,inhibition in vivo at 54 µmol/kg,"[2]; HepG2, iv, 672 h",100%
same,Number of dead mice,BALB/C mice,4
same,cytotoxicity against M2 macrophages (FIG. 6),M2 macrophages,significantly improved cytotoxicity against M2 macrophages
COc1cccc2c1C(=O)c1c(O)c3c(c(O)c1C2=O)C[C@@](O)(C(=O)CO)C[C@@H]3O[C@H]1C[C@H](NC(=O)[C@H](CC(C)C)NC(=O)[C@H](CC(N)=O)NC(=O)[C@H](C)NC(=O)[C@H](C)NC(=O)CCCCCN2C(=O)C=CC2=O)[C@H](O)[C@H](C)O1 [EMC-AANL-DOX] ({Hexanoyl(6-maleimido)}-AANL-{Doxorubicin(3'-N)}),Tumor volume (mm^3) Day 28,HT1080 tumors; 36 umol/kg IV once a week for 3 weeks,138.3 ± 124.6 mm^3
same,inhibition in vivo at 36 µmol/kg,"HT1080 tumors; HT-1080, 672 h, 36 umol/kg IV once a week for 3 weeks",92.1%
same,"Stability data of the solution, 8 hr (content relative to 0 hours)",[3],94.3%
same,efficacy combined with lenvatinib (FIG. 11),[4],superior to that of each monotherapy
same,efficacy combined with PD-1 (FIG. 11),[4]; PD-1 5 mg/kg twice weekly,superior to that of lenvatinib combined with PD-1
same,Tumor volume (mm^3) Day 28,[2]; 54 umol/kg IV once a week for 4 weeks,218.3 ± 167.7 mm^3
same,inhibition in vivo at 54 µmol/kg,"[2]; HepG2, 672 h, 54 umol/kg IV once a week for 4 weeks",92.5%
same,"therapeutic effect on liver cancer, in words",[2]; same molar dose,good effect on the treatment of liver cancer
same,solubility,[5],< 5000 µg/mL
same,Number of dead mice,BALB/C mice,8
same,Compound activation ratios (%),[6],37.3%
